From article PMC6952399, “Structures of lipoprotein signal peptidase II from Staphylococcus aureus complexed with antibiotics globomycin and myxovirescin” (Nature Communications, 2020)
Where “and” joins values, the source holds several entries; their conditions need not be identical. Equal entries are not always repeated.

Legend:
[1] = target: T1, LspMrs (lipoprotein signal peptidase II from methicillin-resistant Staphylococcus aureus) (Staphylococcus aureus, UniProt Q6GHN9); test: FRET lipopeptide peptidase assay, LspMrs; assay type: biochemical; conditions: for IC50: IC50, FRET, 0.3 µM enzyme, 80 µM substrate, initial rates; for Rate (RFU/min): replicates 1 and 2
T1 construct: MGSS-hexahistidine-SSGR-TEV site (ENLYFQ) (N, cleaved yes); made in house; host or cells: E. coli C43 (DE3)
Description: FRET activity assays. A FRET based assay was developed using a labelled lipopeptide substrate (Supplementary Methods, Supplementary Fig. 3b) to directly monitor the protease activity of LspA. The optimised LspMrs assay buffer included 100 mM Tris/HCl pH 7.8, 150 mM NaCl and 0.09%(w/v) DDM. The corresponding optimized buffer for LspPae included 100 mM MES/NaOH pH 5.6, 150 mM NaCl and 0.05%(w/v) LMNG. All assays were performed at 37 °C.
Reaction mixtures were prepared by pipetting the FRET lipopeptide substrate (dissolved in DMSO) directly into assay buffer at a final concentration of 80 µM. Reaction mixtures were prepared by vortexing (Clifton, cyclone CM-1) for 2 s and incubated at 37 °C, 800 rpm for 10 to 30 min. Equal volumes of the reaction mixture were pipetted into 1.5 mL Eppendorf tubes and 0 to 150 µM globomycin or myxovirescin (in DMSO) added. For dose-response assays, the final DMSO concentration in all reactions was 10%(v/v). Reaction mixtures were pipetted into wells of a 96- (Thermo Scientific) or a 384-well plate (4titude®) and incubated for 10 min at 37 °C in a SpectraMax M3 or a SpectraMax M5e plate reader (Molecular devices) prior to starting the assay. Assays were initiated by adding enzyme to a final concentration in the range 10–300 nM. Total reaction mixture volume was 50 μL. Reactions were monitored by fluorescence (Ex/Em, 320 nm/420 nm) for 30 to 60 min at 37 °C. Initial rates were calculated from the fluorescence intensity versus time progress curves (Supplementary Figs. 5 and 6). Occasionally, lag periods in the progress curves were observed (Supplementary Discussion). In such cases, initial rates were calculated after the lag period had passed (typically 1–5 min) and a steady rate had been established. Dose-response plots to determine IC50 values were generated using Prism® 5 software from GraphPad.
It was possible to convert units of fluorescence change into moles of substrate consumed or products formed because pure products of LspA action on Abz-LALAGC*SS-nY-NH2 had been synthesized and were available. These were used to create a standard curve of fluorescence versus moles of the two products in equimolar amounts and to calculate specific activity values.

LspMrs R110K = target: T2, LspMrs R110K (Staphylococcus aureus, UniProt Q6GHN9, R110K); test: Gel-shift peptidase assay, LspMrs R110K mutant; assay type: biochemical, methicillin-resistant Staphylococcus aureus
T2 construct: MGSS-hexahistidine-SSGR-TEV site (ENLYFQ) (N, cleaved yes); made in house; host or cells: E. coli C43 (DE3)
Description: (§1) LspA mutant genes (N52A, N52Q, G54A, G54P, R110A, R110K, D118N, N133A, N133Q and D136N) were obtained by site-directed mutagenesis of the wild-type lspA construct in pETDuet. Mutagenesis was performed using the Q5® Site-Directed Mutagenesis Kit (New England Biolabs) and specific primers are listed in Supplementary Table 5. The correct mutations were confirmed by sequencing (Eurofins Genomics). Expression and purification of all LspMrs wild-type and mutants for enzyme assays were performed as described above with the following modifications: TALON® Metal Affinity Resin (Clontech) was used for IMAC purification and the detergent DDM was used for membrane solubilisation and protein purification.
(§2) The peptidase activity of LspMrs and P. aeruginosa LspA (LspPae) was quantified in a coupled gel-shift assay developed previously for LspPae[5]. The P. aeruginosa lipoprotein pre-proICP and the first two enzymes in the bacterial lipoprotein processing pathway Lgt and LspA were expressed and purified, as described. For FRET assays LspMrs was expressed and purified as described above and LspPae was expressed and purified as described in a published protocol.
(§3) Gel-shift activity assay. […] Band intensities of ICP were quantified using Image Lab. […]

LspMrs G54A = target: T3, LspMrs G54A (Staphylococcus aureus, UniProt Q6GHN9, G54A); test: Gel-shift peptidase assay, LspMrs G54A mutant; assay type: biochemical, methicillin-resistant Staphylococcus aureus
T3 construct: MGSS-hexahistidine-SSGR-TEV site (ENLYFQ) (N, cleaved yes); made in house; host or cells: E. coli C43 (DE3)
Description: as §1, §2, §3

[2] = target: T1, LspMrs (lipoprotein signal peptidase II from methicillin-resistant Staphylococcus aureus); test: Coupled gel-shift peptidase assay with proICP substrate, LspMrs WT; assay type: biochemical; conditions: proICP substrate (12 µM pre-proICP), 0.5 µM enzyme, 30 min
Text: as §2
Gel-shift activity assay. For time course assays, reactions were set up containing 12 µM pre-proICP, 250 µM DOPG (Avanti Polar Lipids, Inc.) and 1.2 µM Lgt in Buffer E (50 mM Tris/HCl pH 7.5, 150 mM NaCl, 1 mM DTT, 0.02%(w/v) LMNG). The assay mixtures were incubated at 37 °C and 200 rpm for 60 min to allow Lgt catalysed conversion of pre-proICP to the LspA substrate proICP. The LspA reaction was initiated by adding 0.5 µM LspA directly to the assay mixture. At timed intervals, 20 µL samples were removed and the reaction was stopped by adding 10 µL of 4x SDS loading buffer (62.5 mM Tris/HCl pH 6.8, 2.5%(w/v) SDS, 0.002%(w/v) bromophenol blue, 0.5 M β-mercaptoethanol, 10%(v/v) glycerol). To compare the activity of wild-type and mutant LspMrs, assays were allowed to proceed for 30 min before being stopped with SDS loading buffer. […] Band intensities of ICP were quantified using Image Lab. […]

LspMrs N52Q = target: T4, LspMrs N52Q (Staphylococcus aureus, UniProt Q6GHN9, N52Q); test: Gel-shift peptidase assay, LspMrs N52Q mutant; assay type: biochemical, methicillin-resistant Staphylococcus aureus
T4 construct: MGSS-hexahistidine-SSGR-TEV site (ENLYFQ) (N, cleaved yes); made in house; host or cells: E. coli C43 (DE3)
Description: as §1, §2, §3

Row | SMILES | IC50 [1] | Rate (RFU/min) ([1]; LspMrs + Myxovirescin, log [myxovirescin] (µM) 0.00) | Rate (RFU/min) ([1]; LspMrs + Myxovirescin, log [myxovirescin] (µM) -0.30) | Rate (RFU/min) ([1]; LspMrs + Myxovirescin, log [myxovirescin] (µM) -0.52) | Rate (RFU/min) ([1]; LspMrs + Myxovirescin, log [myxovirescin] (µM) -0.70) | Rate (RFU/min) ([1]; LspMrs + Myxovirescin, log [myxovirescin] (µM) -1.00) | Rate (RFU/min) ([1]; LspMrs + Myxovirescin, log [myxovirescin] (µM) -2.00) | Rate (RFU/min) ([1]; LspMrs + Myxovirescin, log [myxovirescin] (µM) -3.00) | IC50 (LspMrs R110K) | IC50 (LspMrs G54A) | IC50 [2] | IC50 (LspMrs N52Q) | Rate (RFU/min) ([1]; LspMrs + Globomycin, log [globomycin] (µM) 0.00) | Rate (RFU/min) ([1]; LspMrs + Globomycin, log [globomycin] (µM) -0.30) | Rate (RFU/min) ([1]; LspMrs + Globomycin, log [globomycin] (µM) -0.52) | Rate (RFU/min) ([1]; LspMrs + Globomycin, log [globomycin] (µM) -0.70) | Rate (RFU/min) ([1]; LspMrs + Globomycin, log [globomycin] (µM) -1.00) | Rate (RFU/min) ([1]; LspMrs + Globomycin, log [globomycin] (µM) -2.00) | Rate (RFU/min) ([1]; LspMrs + Globomycin, log [globomycin] (µM) -3.00)
1 | CCCC1OC(=O)C(C)CC(C)CCCCC(=O)CCCC(CC)C=CC=C(COC)CCC(O)C(O)CC(O)CNC1=O (stereo not drawn) [myxovirescin, myxovirescin A1] | 151 nM | 0 RFU/min | 0 RFU/min | 0 RFU/min and 0.13 RFU/min | 0.55 RFU/min and 0.58 RFU/min | 1.04 RFU/min | 1.47 RFU/min and 1.55 RFU/min | 1.49 RFU/min and 1.52 RFU/min | 400 ± 30 nM | 570 ± 10 nM | 0.16 µM | 290 ± 80 nM | – | – | – | – | – | – | –
2 | CCCCCC[C@H]1OC(=O)CNC(=O)[C@H]([C@H](C)O)NC(=O)[C@H](CO)NC(=O)[C@H]([C@H](C)CC)NC(=O)[C@H](CC(C)C)N(C)C(=O)[C@@H]1C [globomycin] | 170 nM and 167 nM | – | – | – | – | – | – | – | 1730 ± 100 nM | 1780 ± 250 nM | 171 µM | 2430 ± 340 nM | 0 RFU/min | 0 RFU/min | 0.33 RFU/min and 0.27 RFU/min | 0.64 RFU/min and 0.57 RFU/min | 1.06 RFU/min and 1.05 RFU/min | 1.47 RFU/min and 1.55 RFU/min | 1.53 RFU/min and 1.49 RFU/min
